Assay results published in PubChem BioAssay (NCI).
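Grown in 96-well plates, cells were treated for 48 hours with each compound at five concentrations. Insufficient inhibition: endpoint recorded as highest concentration tested. Definition used: TGI = concentration required for complete inhibition of growth.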

How the values were obtained:
Assay in all cases: growth of human tumour cells (NCI), 48 h
A549 NSCLC = tested on: A549 NSCLC
DU-145 prostate = tested on: DU-145 prostate
NCI-H23 lung = tested on: NCI-H23 lung
SK-MEL-5 melanoma = tested on: SK-MEL-5 melanoma
MALME-3M melanoma = tested on: MALME-3M melanoma
IGROV1 ovarian = tested on: IGROV1 ovarian
MOLT-4 leukemia = tested on: MOLT-4 leukemia
SF-295 CNS = tested on: SF-295 CNS
RXF 393 renal = tested on: RXF 393 renal
HCT-116 colon = tested on: HCT-116 colon
SF-539 CNS = tested on: SF-539 CNS
SK-OV-3 ovarian = tested on: SK-OV-3 ovarian
HL-60(TB) leukemia = tested on: HL-60(TB) leukemia
UO-31 renal = tested on: UO-31 renal
CCRF-CEM leukemia = tested on: CCRF-CEM leukemia
OVCAR-8 ovarian = tested on: OVCAR-8 ovarian
SW-620 colon = tested on: SW-620 colon
HCC-2998 colon = tested on: HCC-2998 colon
UACC-257 melanoma = tested on: UACC-257 melanoma
MDA-MB-231 breast = tested on: MDA-MB-231 breast
NCI/ADR-RES ovarian = tested on: NCI/ADR-RES ovarian
MDA-MB-435 = tested on: MDA-MB-435
HOP-62 NSCLC = tested on: HOP-62 NSCLC
K-562 leukemia = tested on: K-562 leukemia
HOP-92 NSCLC = tested on: HOP-92 NSCLC
COLO 205 colon = tested on: COLO 205 colon
T-47D breast = tested on: T-47D breast
UACC-62 melanoma = tested on: UACC-62 melanoma
786-0 renal = tested on: 786-0 renal
OVCAR-4 ovarian = tested on: OVCAR-4 ovarian
LOX IMVI melanoma = tested on: LOX IMVI melanoma
NCI-H460 lung = tested on: NCI-H460 lung
A498 renal = tested on: A498 renal
ACHN renal = tested on: ACHN renal
RPMI-8226 leukemia = tested on: RPMI-8226 leukemia
EKVX NSCLC = tested on: EKVX NSCLC
SNB-19 CNS = tested on: SNB-19 CNS
SR leukemia = tested on: SR leukemia
U251 CNS = tested on: U251 CNS
NCI-H522 lung = tested on: NCI-H522 lung
NCI-H226 lung = tested on: NCI-H226 lung
MCF7 breast = tested on: MCF7 breast
SNB-75 CNS = tested on: SNB-75 CNS
HT29 colon = tested on: HT29 colon
SN12C renal = tested on: SN12C renal
OVCAR-5 ovarian = tested on: OVCAR-5 ovarian
SK-MEL-28 melanoma = tested on: SK-MEL-28 melanoma
CAKI-1 renal = tested on: CAKI-1 renal
HS 578T breast = tested on: HS 578T breast
M14 melanoma = tested on: M14 melanoma
TK-10 renal = tested on: TK-10 renal
SF-268 CNS = tested on: SF-268 CNS
OVCAR-3 ovarian = tested on: OVCAR-3 ovarian
MDA-N = tested on: MDA-N
PC-3 prostate = tested on: PC-3 prostate
HCT-15 colon = tested on: HCT-15 colon
KM12 colon = tested on: KM12 colon

Q: Which results are given for CCCCCCCCCc1c(Cl)nc(Cl)nc1Cl?
A: TGI (A549 NSCLC): 37.6 µM; TGI (DU-145 prostate): 31.2 µM; TGI (NCI-H23 lung): 25.7 µM; TGI (SK-MEL-5 melanoma): 25.6 µM; TGI (MALME-3M melanoma): 25.6 µM; TGI (IGROV1 ovarian): 26.6 µM; TGI (MOLT-4 leukemia): 5.18 µM; TGI (SF-295 CNS): 39.3 µM; TGI (RXF 393 renal): 32.3 µM; TGI (HCT-116 colon): 27.9 µM; TGI (SF-539 CNS): 32.6 µM; TGI (SK-OV-3 ovarian): 36.4 µM; TGI (HL-60(TB) leukemia): 18.2 µM; TGI (UO-31 renal): 32.2 µM; TGI (CCRF-CEM leukemia): 5.79 µM; TGI (OVCAR-8 ovarian): 32.1 µM; TGI (SW-620 colon): 26.3 µM; TGI (HCC-2998 colon): 8.89 µM; TGI (UACC-257 melanoma): 34.6 µM; TGI (MDA-MB-231 breast): 25 µM; TGI (NCI/ADR-RES ovarian): 35.8 µM; TGI (MDA-MB-435): 26.7 µM; TGI (HOP-62 NSCLC): 37.5 µM; TGI (K-562 leukemia): 19.4 µM; TGI (HOP-92 NSCLC): 29.4 µM; TGI (COLO 205 colon): 37.7 µM; TGI (T-47D breast): 27 µM; TGI (UACC-62 melanoma): 38.8 µM; TGI (786-0 renal): 27.8 µM; TGI (OVCAR-4 ovarian): 28.9 µM; TGI (LOX IMVI melanoma): 4.34 µM; TGI (NCI-H460 lung): 37.4 µM; TGI (A498 renal): 34 µM; TGI (ACHN renal): 33.7 µM; TGI (RPMI-8226 leukemia): 37.5 µM; TGI (EKVX NSCLC): 38.2 µM; TGI (SNB-19 CNS): 30.8 µM; TGI (SR leukemia): 7.93 µM; TGI (U251 CNS): 33 µM; TGI (NCI-H522 lung): 12.1 µM; TGI (NCI-H226 lung): 20.1 µM; TGI (MCF7 breast): 36.5 µM; TGI (SNB-75 CNS): 29.6 µM; TGI (HT29 colon): 34 µM; TGI (SN12C renal): 26.8 µM; TGI (OVCAR-5 ovarian): 35.9 µM; TGI (SK-MEL-28 melanoma): 35.7 µM; TGI (CAKI-1 renal): 12.1 µM; TGI (HS 578T breast): 58.3 µM; TGI (M14 melanoma): 11 µM; TGI (TK-10 renal): 37.8 µM; TGI (SF-268 CNS): 34.6 µM; TGI (OVCAR-3 ovarian): 32 µM; TGI (MDA-N): 32.2 µM; TGI (PC-3 prostate): 29.8 µM; TGI (HCT-15 colon): 27.5 µM; TGI (KM12 colon): > 65 µM
